Measured values taken from PMC9866191, “Novel 9-Benzylaminoacridine Derivatives as Dual Inhibitors of Phosphodiesterase 5 and Topoisomerase II for the Treatment of Colon Cancer” (Molecules, 2023).

Key:
[1] = biological target: T1, PDE5A (Homo sapiens, UniProt O76074); experiment: Phosphodiesterase 5 HTRF cGMP assay; format: biochemical; conditions: for IC50: means ± S.D. (n = 4), read-out: PDE5 IC50; for inhibition at 10 µM: read-out: PDE5 % Inhibition at 10 μM
T1 construct: purchased BPS Bioscience, San Diego, CA, USA
Method: All the synthesized acridine derivatives were tested for their in vitro ability to inhibit PDE5A at a screening dose of 10 µM.
The enzyme activities of phosphodiesterase 5 (PDE5) were measured using an HTRF cGMP assay kit (Cisbio, Codolet, France). […] Afterward, the HTRF reagent (cGMP-d2 and anti-cGMP-cryptate) was added for 1 h at 25 °C, and PDE activity was assayed on an HTRF reader (Tecan Infinite F200 Pro).

[2] = system: COLO 205; experiment: NCI-60 one-dose screen; format: cell-based; conditions: Homo sapiens; COLO 205, Colon Cancer panel; single dose 10^−5 M; read-out: Growth inhibition %
[3] = system: OVCAR-3; experiment: NCI-60 one-dose screen; format: cell-based; conditions: Homo sapiens; OVCAR-3, Ovarian Cancer panel; single dose 10^−5 M; read-out: Growth inhibition %
[4] = system: CAKI-1; experiment: NCI-60 one-dose screen; format: cell-based; conditions: Homo sapiens; CAKI-1, Renal Cancer panel; single dose 10^−5 M; read-out: Growth inhibition %
[5] = system: 786-0; experiment: NCI-60 one-dose screen; format: cell-based; conditions: Homo sapiens; 786-0, Renal Cancer panel; single dose 10^−5 M; read-out: Growth inhibition %
[6] = system: SR; experiment: NCI-60 one-dose screen; format: cell-based; conditions: Homo sapiens, Leukemia panel, single dose 10^−5 M, read-out: Growth inhibition %
[7] = system: MDA-MB-231/ATCC; experiment: NCI-60 one-dose screen; format: cell-based; conditions: Homo sapiens, Breast Cancer panel, single dose 10^−5 M, read-out: Growth inhibition %
[8] = system: SK-MEL-5; experiment: NCI-60 one-dose screen; format: cell-based; conditions: Homo sapiens; SK-MEL-5, Melanoma panel; single dose 10^−5 M; read-out: Growth inhibition %
[9] = system: HCT-15; experiment: NCI-60 one-dose screen; format: cell-based; conditions: Homo sapiens; HCT-15, Colon Cancer panel; single dose 10^−5 M; read-out: Growth inhibition %
[10] = system: SW-620; experiment: NCI-60 one-dose screen; format: cell-based; conditions: Homo sapiens; SW-620, Colon Cancer panel; single dose 10^−5 M; read-out: Growth inhibition %
[11] = system: SNB-75; experiment: NCI-60 one-dose screen; format: cell-based; conditions: Homo sapiens; SNB-75, CNS Cancer panel; single dose 10^−5 M; read-out: Growth inhibition %
[12] = system: DU-145; experiment: NCI-60 one-dose screen; format: cell-based; conditions: Homo sapiens; DU-145, Prostate Cancer panel; single dose 10^−5 M; read-out: Growth inhibition %
[13] = system: HS 578T; experiment: NCI-60 one-dose screen; format: cell-based; conditions: Homo sapiens, Breast Cancer panel, single dose 10^−5 M, read-out: Growth inhibition %
[14] = system: BT-549; experiment: NCI-60 one-dose screen; format: cell-based; conditions: Homo sapiens; BT-549, Breast Cancer panel; single dose 10^−5 M; read-out: Growth inhibition %
[15] = system: MDA-MB-435; experiment: NCI-60 one-dose screen; format: cell-based; conditions: Homo sapiens; MDA-MB-435, Melanoma panel; single dose 10^−5 M; read-out: Growth inhibition %
[16] = system: OVCAR-8; experiment: NCI-60 one-dose screen; format: cell-based; conditions: Homo sapiens; OVCAR-8, Ovarian Cancer panel; single dose 10^−5 M; read-out: Growth inhibition %
[17] = system: SK-MEL-28; experiment: NCI-60 one-dose screen; format: cell-based; conditions: Homo sapiens; SK-MEL-28, Melanoma panel; single dose 10^−5 M; read-out: Growth inhibition %
[18] = system: EKVX; experiment: NCI-60 one-dose screen; format: cell-based; conditions: Homo sapiens, Non-small cell lung panel, single dose 10^−5 M, read-out: Growth inhibition %
[19] = system: HL-60(TB); experiment: NCI-60 one-dose screen; format: cell-based; conditions: Homo sapiens, Leukemia panel, single dose 10^−5 M, read-out: Growth inhibition %
[20] = system: NCI-H226; experiment: NCI-60 one-dose screen; format: cell-based; conditions: Homo sapiens; NCI-H226, Non-small cell lung panel; single dose 10^−5 M; read-out: Growth inhibition %
[21] = system: MOLT-4; experiment: NCI-60 one-dose screen; format: cell-based; conditions: Homo sapiens; MOLT-4, Leukemia panel; single dose 10^−5 M; read-out: Growth inhibition %
[22] = system: UO-31; experiment: NCI-60 one-dose screen; format: cell-based; conditions: Homo sapiens; UO-31, Renal Cancer panel; single dose 10^−5 M; read-out: Growth inhibition %
[23] = system: KM12; experiment: NCI-60 one-dose screen; format: cell-based; conditions: Homo sapiens; KM12, Colon Cancer panel; single dose 10^−5 M; read-out: Growth inhibition %
[24] = system: ACHN; experiment: NCI-60 one-dose screen; format: cell-based; conditions: Homo sapiens, Renal Cancer panel, single dose 10^−5 M, read-out: Growth inhibition %
[25] = system: K-562; experiment: NCI-60 one-dose screen; format: cell-based; conditions: Homo sapiens, K562; K-562, Leukemia panel; single dose 10^−5 M; read-out: Growth inhibition %
[26] = system: HT29; experiment: NCI-60 one-dose screen; format: cell-based; conditions: Homo sapiens, HT-29; HT29, Colon Cancer panel; single dose 10^−5 M; read-out: Growth inhibition %
[27] = system: CCD-966SK; experiment: MTT cell proliferation assay, CCD-966SK; conditions: CCD966SK skin fibroblast, 72 h MTT
Method: In the MTT assay, 96-well culture plates were used. A total of 7 × 10^4 cells per well were seeded, and test materials were added to the cells at various concentrations [47, 48]. Human cancer and non-cancer cell lines were purchased commercially from the American Type Culture Collection (ATCC). After 72 h, the cytotoxicity of the compounds and paclitaxel (as a positive control group) was detected using the MTT method (thiazolyl blue tetrazolium bromide, Sigma-M2128). Absorbance values at 570 and 620 nm (OD = OD570–OD620) were measured using an ELISA reader (Anthos Labtec Instruments, Salzburg, Austria).

[28] = system: HCT-116; experiment: MTT cell proliferation assay, HCT-116; conditions: for % Inhibition at 10 µM: 72 h MTT, means ± SD; for IC50: read-out: IC50 μM, 72 h MTT, means ± SD, three experiments
[29] = system: SF-268; experiment: NCI-60 one-dose screen; format: cell-based; conditions: Homo sapiens; SF-268, CNS Cancer panel; single dose 10^−5 M; read-out: Growth inhibition %

| Structure (SMILES) | IC50 [1] | inhibition at 10 µM [1] | inhibition at 10 µM [2] | inhibition at 10 µM [3] | inhibition at 10 µM [4] | inhibition at 10 µM [5] | inhibition at 10 µM [6] | inhibition at 10 µM [7] | inhibition at 10 µM [8] | inhibition at 10 µM [9] | inhibition at 10 µM [10] | inhibition at 10 µM [11] | inhibition at 10 µM [12] | inhibition at 10 µM [13] | inhibition at 10 µM [14] | inhibition at 10 µM [15] | inhibition at 10 µM [16] | inhibition at 10 µM [17] | inhibition at 10 µM [18] | inhibition at 10 µM [19] | further results |
| --- | --- | --- | --- | --- | --- | --- | --- | --- | --- | --- | --- | --- | --- | --- | --- | --- | --- | --- | --- | --- | --- |
| Fc1cccc(CNc2c3ccccc3nc3ccccc23)c1 [Compound 9, Acridin-9-yl-(3-fluorobenzyl)-amine] | 7.49 ± 2.2 µM | 55.9 ± 5.78% | 82.7% | 33% | 73% | 63.5% | 80.9% | 69.4% | 39.5% | 77.1% | 78% | 37% | 58.3% | 36.1% | 22.9% | 51.1% | 64% | 21.5% | 68% | 53% | inhibition at 10 µM [20]: 49.4%; inhibition at 10 µM [21]: 85.1%; inhibition at 10 µM [22]: 76%; inhibition at 10 µM [23]: 51.4%; inhibition at 10 µM [24]: 82.9%; inhibition at 10 µM [25]: 84.3%; inhibition at 10 µM [26]: 85.7%; % Inhibition at 10 µM [27]: 42.74 ± 2.09%; % Inhibition at 10 µM [28]: 57.06 ± 1.36%; IC50 [28]: 7.3 ± 0.33 µM; inhibition at 10 µM [29]: 37.9% |
| Fc1ccc(CNc2c3ccccc3nc3ccccc23)cc1 [Compound 10, Acridin-9-yl-(4-fluorobenzyl)-amine] | > 10 µM | 47 ± 7.06% | 92.5% | 61.3% | 74.5% | 72.4% | 93.4% | 61.7% | 57.5% | 82.4% | 77.2% | 57.9% | 65.1% | 60.5% | 19.3% | 65.2% | 77.7% | 31.8% | 64.4% | 78.8% | inhibition at 10 µM [20]: 48.2%; inhibition at 10 µM [21]: 91.3%; inhibition at 10 µM [22]: 86.5%; inhibition at 10 µM [23]: 71.7%; inhibition at 10 µM [24]: 87.5%; inhibition at 10 µM [25]: 95.2%; inhibition at 10 µM [26]: 83.9%; % Inhibition at 10 µM [27]: 52.93 ± 1.00%; IC50 ([27]; read-out: IC50 μM): 9.26 ± 0.21 µM; % Inhibition at 10 µM [28]: 67.57 ± 0.29%; IC50 [28]: 2.75 ± 0.04 µM; inhibition at 10 µM [29]: 46.8% |
| Clc1ccccc1CNc1c2ccccc2nc2ccccc12 [Compound 11, Acridin-9-yl-(2-chlorobenzyl)-amine] | 4.33 ± 2.35 µM | 87.3 ± 3.68% | 99.5% | 46.4% | 74.8% | 75.5% | 99.5% | 71% | 58.2% | 86.4% | 90.4% | 56.9% | 68.2% | 50% | 61.9% | 72.8% | 76.2% | 49.5% | 74.1% | 86.4% | inhibition at 10 µM [20]: 61.1%; inhibition at 10 µM [21]: 94.9%; inhibition at 10 µM [22]: 82.5%; inhibition at 10 µM [23]: 78%; inhibition at 10 µM [24]: 87.8%; inhibition at 10 µM [25]: 94.7%; inhibition at 10 µM [26]: 94.5%; % Inhibition at 10 µM [27]: 36.77 ± 3.49%; % Inhibition at 10 µM [28]: 63.49 ± 1.20%; IC50 [28]: 7.13 ± 0.24 µM; inhibition at 10 µM [29]: 53.4% |
| Clc1cccc(CNc2c3ccccc3nc3ccccc23)c1 [Compound 12, Acridin-9-yl-(3-chlorobenzyl)-amine] | 6.29 ± 1.18 µM | 62.2 ± 4.94% | 99.5% | 42.3% | 71.8% | 74.8% | 104% | 70.6% | 33.8% | 86% | 88% | 31.3% | 68.3% | 46.3% | 40.9% | 53.4% | 68.9% | 33.8% | 72.8% | 91% | inhibition at 10 µM [20]: 52%; inhibition at 10 µM [21]: 98.9%; inhibition at 10 µM [22]: 84%; inhibition at 10 µM [23]: 59.2%; inhibition at 10 µM [24]: 84.3%; inhibition at 10 µM [25]: 95%; inhibition at 10 µM [26]: 91.4%; % Inhibition at 10 µM [27]: 45.43 ± 0.42%; % Inhibition at 10 µM [28]: 63.40 ± 7.54%; IC50 [28]: 4.84 ± 0.05 µM; inhibition at 10 µM [29]: 39.4% |
